The record followed here is patent publication US20200281202A1 (priority 2017, published 2020).

SMILES strings stand for the structures.

Test [1] concerns Phytophthora infestans. The test is described as follows: microbe, parasite or virus in culture. It counts as cell-based. The conditions noted are these: for control (radial growth) compared to the untreated check: 30 ppm in Rye Agar medium, seven days at 18° C.; for inhibition of growth at 30 ppm: Phytophthora infestans, 168 h, read-out: control (radial growth) compared to the untreated check.

In test [2] the test system is Phytophthora infestans. The test is described as follows: whole plant or invertebrate. It counts as in vivo. Conditions: for control (disease severity) compared to the untreated check: 50 ppm spray, preventive, Tomato plants inoculated one day after treatment; for pest or weed control at 50 ppm: Phytophthora infestans, in Solanum lycopersicum, read-out: control (disease severity) compared to the untreated check.

The subject of test [3] is Plasmopara viticola. The test is described as follows: Plasmopara viticola test in grape, preventive. It counts as in vivo. The conditions noted are these: 50 ppm spray, grape seedlings inoculated one day after treatment; for pest or weed control at 50 ppm: Plasmopara viticola, read-out: control (disease severity) compared to the untreated check. The protocol:
Example B: Plasmopara viticola Test in Grape
Compounds were dissolved in 2% DMSO/Acetone & then mixed with water to calibrated spray volume of 50 ml. This 50 ml spray solution was poured into the spray bottles for further applications.
To test the preventive activity of compounds, five week old healthy grape seedlings raised in the greenhouse were sprayed with active compound preparation at the stated application rates inside the spray cabinets using hallow-cone nozzles. One day after treatment, the plants were inoculated with inoculum suspension (Cold sterile water) containing 6×10^6 Plasmopara viticola inoculum. The inoculated plants were then kept in greenhouse chamber at 18-21° C. temperature and 95-100% relative humidity for disease expression. Compounds
A visual assessment of compound's performance was carried by rating the disease severity (0-100% scale) on treated plants on 3, 7, 10 and 15 days after application. Efficacy (% control) of the compounds was calculated by comparing the disease rating in the treatment with untreated control. The sprayed plants were also assessed for compound's phytotoxic effects by recording symptoms like necrosis, chlorosis and stunting.

Take `O=C(COc1ncc(Br)cc1C(F)(F)F)N1CCC(c2nc(C3=NOC(c4c(Cl)cc(Cl)cc4Cl)C3)cs2)CC1` (stereo not shown) [Compound 38]: the “control (radial growth) compared to the untreated check” value in test [1] amounted to 70%. The “control (disease severity) compared to the untreated check” value in test [2] and in test [3] was 90% each time.

Turning to `Cc1ccc(C(F)(F)F)c(OCC(=O)N2CCC(c3nc(C4=NOC(c5c(Cl)cccc5Cl)C4)cs3)CC2)n1` (stereo not shown) [Compound 41, 1-(4-(4-(5-(2,6-dichlorophenyl)-4,5-dihydroisoxazol-3-yl)thiazol-2-yl)piperidin-1-yl)-2-((6-methyl-3-(trifluoromethyl)pyridin-2-yl)oxy)ethan-1-one], the inhibition of growth at 30 ppm in test [1] was 70%. Also, the pest or weed control at 50 ppm in test [2] and in test [3] was 90% throughout.

As for `CS(=O)(=O)Oc1cccc(Cl)c1C1CC(c2csc(C3CCN(C(=O)CSc4ncccc4C(F)(F)F)CC3)n2)=NO1` (stereo not shown) [Compound 61, 3-chloro-2-(3-(2-(1-(2-((3-(trifluoromethyl)pyridin-2-yl)thio)acetyl)piperidin-4-yl)thiazol-4-yl)-4,5-dihydroisoxazol-5-yl)phenyl methanesulfonate], in test [1], the inhibition of growth at 30 ppm stood at 70%. Further, the pest or weed control at 50 ppm in test [2] and in test [3] was 90% each time.

As for `O=C(COc1ncc(Cl)cc1C(F)(F)F)N1CCC(c2nc(C3=NOC(c4c(Cl)cc(Cl)cc4Cl)C3)cs2)CC1` (stereo not shown) [Compound 34], in test [1], the inhibition of growth at 30 ppm is 70%. The pest or weed control at 50 ppm in test [2] and in test [3] was 90% throughout.

With `Cc1cccnc1OCC(=O)N1CCC(c2nc(C3=NOC(c4c(Cl)cccc4Cl)C3)cs2)CC1` (stereo not shown) [Compound 76, 1-(4-(4-(5-(2,6-dichlorophenyl)-4,5-dihydroisoxazol-3-yl)thiazol-2-yl)piperidin-1-yl)-2-((3-methylpyridin-2-yl)oxy)ethan-1-one], the inhibition of growth at 30 ppm in test [1] was determined as 70%. In addition, the pest or weed control at 50 ppm in test [2] and in test [3] was 90% throughout.

`O=C(COc1ncccc1C(F)F)N1CCC(c2nc(C3=NOC(c4c(Cl)cc(Cl)cc4Cl)C3)cs2)CC1` (stereo not shown) [Compound 87]: the inhibition of growth at 30 ppm in test [1] was determined as 70%. For the same compound, the pest or weed control at 50 ppm in test [2] and in test [3] was 90% in each case.

For the compound `O=C(COc1ncc(Cl)cc1C(F)(F)F)N1CCC(c2nc(C3=NOC(c4c(F)cccc4F)C3)cs2)CC1` (stereo not shown) [Compound 33], in test [1], the inhibition of growth at 30 ppm worked out at 70%. The pest or weed control at 50 ppm in test [2] and in test [3] was 90% throughout.

On to `CS(=O)(=O)Oc1cccc(Cl)c1C1CC(c2csc(C3CCN(C(=O)COc4ncccc4C(F)(F)F)CC3)n2)=NO1` (stereo not shown) [Compound 28, 3-chloro-2-(3-(2-(1-(2-((3-(trifluoromethyl)pyridin-2-yl)oxy)acetyl)piperidin-4-yl)thiazol-4-yl)-4,5-dihydroisoxazol-5-yl)phenyl methanesulfonate], for which, in test [1], the inhibition of growth at 30 ppm was determined as 70%. The pest or weed control at 50 ppm in test [2] came out at 90%.

As for `O=C(COc1ncccc1C(F)(F)F)N1CCC(c2nc(C3=NOC(c4ccccc4F)C3)cs2)CC1` (stereo not shown) [Compound 66, 1-(4-(4-(5-(2-fluorophenyl)-4,5-dihydroisoxazol-3-yl)thiazol-2-yl)piperidin-1-yl)-2-((3-(trifluoromethyl)pyridin-2-yl)oxy)ethan-1-one], the inhibition of growth at 30 ppm in test [1] was 70%. Further, the pest or weed control at 50 ppm in test [2] and in test [3] was 90% throughout.

`O=C(COc1ncc(Br)cc1C(F)(F)F)N1CCC(c2nc(C3=NOC(c4c(F)cccc4F)C3)cs2)CC1` (stereo not shown) [Compound 37, 2-((5-bromo-3-(trifluoromethyl)pyridin-2-yl)oxy)-1-(4-(4-(5-(2,6-difluorophenyl)-4,5-dihydroisoxazol-3-yl)thiazol-2-yl)piperidin-1-yl)ethan-1-one]: the inhibition of growth at 30 ppm in test [1] amounted to 70%. Also, the pest or weed control at 50 ppm in test [2] and in test [3] was 90% each time.

For `Cc1cccnc1OCC(=O)N1CCC(c2nc(C3=NOC(c4c(Cl)cc(Cl)cc4Cl)C3)cs2)CC1` (stereo not shown) [Compound 79], the inhibition of growth at 30 ppm in test [1] was found to be 70%. The pest or weed control at 50 ppm in test [2] and in test [3] was 90% throughout.

`O=C(COc1ncccc1C(F)(F)F)N1CCC(c2nc(C3=NOC(c4c(Cl)cc(Cl)cc4Cl)C3)cs2)CC1` (stereo not shown) [Compound 30, 1-(4-(4-(5-(2,4,6-trichlorophenyl)-4,5-dihydroisoxazol-3-yl)thiazol-2-yl)piperidin-1-yl)-2-((3-(trifluoromethyl)pyridin-2-yl)oxy)ethan-1-one]: the inhibition of growth at 30 ppm in test [1] came to 70%. Further, the pest or weed control at 50 ppm in test [2] and in test [3] was 90% throughout.

With `O=C(COc1ncccc1C(F)F)N1CCC(c2nc(C3=NOC(c4c(F)cccc4F)C3)cs2)CC1` (stereo not shown) [Compound 86, 2-((3-(difluoromethyl)pyridin-2-yl)oxy)-1-(4-(4-(5-(2,6-difluorophenyl)-4,5-dihydroisoxazol-3-yl)thiazol-2-yl)piperidin-1-yl)ethan-1-one], in test [1], the inhibition of growth at 30 ppm was determined as 70%. The pest or weed control at 50 ppm in test [2] and in test [3] was 90% throughout.

Consider `Cn1nc(C(F)(F)F)cc1OCC(=O)N1CCC(c2nc(C3=NOC(c4c(Cl)cc(Cl)cc4Cl)C3)cs2)CC1` (stereo not shown) [Compound 10, 2-((1-methyl-3-(trifluoromethyl)-1H-pyrazol-5-yl)oxy)-1-(4-(4-(5-(2,4,6-trichlorophenyl)-4,5-dihydroisoxazol-3-yl)thiazol-2-yl)piperidin-1-yl)ethan-1-one], for which the inhibition of growth at 30 ppm in test [1] came to 70%. Besides, the pest or weed control at 50 ppm in test [2] and in test [3] was 90% each time.

With `O=C(COc1ncc(Br)cc1C(F)(F)F)N1CCC(c2nc(C3=NOC(c4c(Cl)cccc4Cl)C3)cs2)CC1` (stereo not shown) [Compound 35, 2-((5-bromo-3-(trifluoromethyl)pyridin-2-yl)oxy)-1-(4-(4-(5-(2,6-dichlorophenyl)-4,5-dihydroisoxazol-3-yl)thiazol-2-yl)piperidin-1-yl)ethan-1-one], the inhibition of growth at 30 ppm in test [1] amounted to 70%. The pest or weed control at 50 ppm in test [2] and in test [3] was 90% each time.

As to `Cc1ccc(C(F)(F)F)c(OCC(=O)N2CCC(c3nc(C4=NOC(c5c(F)cccc5F)C4)cs3)CC2)n1` (stereo not shown) [Compound 40, 1-(4-(4-(5-(2,6-difluorophenyl)-4,5-dihydroisoxazol-3-yl)thiazol-2-yl)piperidin-1-yl)-2-((6-methyl-3-(trifluoromethyl)pyridin-2-yl)oxy)ethan-1-one], in test [1], the inhibition of growth at 30 ppm stood at 70%. Besides, in test [2], the pest or weed control at 50 ppm worked out at 90%.

On to `O=C(COc1ncccc1C(F)(F)F)N1CCC(c2nc(C3=NOC(c4c(Cl)cccc4Cl)C3)cs2)CC1` (stereo not shown) [Compound 27], for which the inhibition of growth at 30 ppm in test [1] amounted to 70%. For the same compound, the pest or weed control at 50 ppm in test [2] and in test [3] was 90% in each case.

As for `COc1ccc(C2CC(c3csc(C4CCN(C(=O)COc5ncc(Cl)cc5C(F)(F)F)CC4)n3)=NO2)cc1` (stereo not shown) [Compound 67], the “control (radial growth) compared to the untreated check” value in test [1] is listed as 70%. The “control (disease severity) compared to the untreated check” value in test [2] is reported as 90%.

For `Cc1ccc(C(F)(F)F)c(OCC(=O)N2CCC(c3nc(C4=NOC(c5c(Cl)cc(Cl)cc5Cl)C4)cs3)CC2)n1` (stereo not shown) [Compound 39, 2-((6-methyl-3-(trifluoromethyl)pyridin-2-yl)oxy)-1-(4-(4-(5-(2,4,6-trichlorophenyl)-4,5-dihydroisoxazol-3-yl)thiazol-2-yl)piperidin-1-yl)ethan-1-one], the inhibition of growth at 30 ppm in test [1] was 70%. The pest or weed control at 50 ppm in test [2] and in test [3] was 90% throughout.

For the compound `CS(=O)(=O)Oc1cccc(Cl)c1C1CC(c2csc(C3CCN(C(=O)COc4cccc(C(F)(F)F)n4)CC3)n2)=NO1` (stereo not shown) [Compound 71, 3-chloro-2-(3-(2-(1-(2-((6-(trifluoromethyl)pyridin-2-yl)oxy)acetyl)piperidin-4-yl)thiazol-4-yl)-4,5-dihydroisoxazol-5-yl)phenyl methanesulfonate], in test [1], the inhibition of growth at 30 ppm was 70%.

On to `O=C(COc1ncccc1C(F)F)N1CCC(c2nc(C3=NOC(c4c(Cl)cccc4Cl)C3)cs2)CC1` (stereo not shown) [Compound 90], for which the inhibition of growth at 30 ppm in test [1] was determined as 70%.

`O=C(COc1ncc(C(F)(F)F)cc1Br)N1CCC(c2nc(C3=NOC(c4c(F)cccc4F)C3)cs2)CC1` (stereo not shown) [Compound 53]: in test [1], the “control (radial growth) compared to the untreated check” value turned out to be 70%.

For the compound `O=C(COc1ccc(C(F)(F)F)cn1)N1CCC(c2nc(C3=NOC(c4c(F)cccc4F)C3)cs2)CC1` (stereo not shown) [Compound 49, 1-(4-(4-(5-(2,6-difluorophenyl)-4,5-dihydroisoxazol-3-yl)thiazol-2-yl)piperidin-1-yl)-2-((5-(trifluoromethyl)pyridin-2-yl)oxy)ethan-1-one], the inhibition of growth at 30 ppm in test [1] came to 70%.
